Reference: article PMC3522424 (Vaccine, 2012)

Tested on: PBMCs from HIV-infected HLA-A2-positive subjects
Assay: IFNγ ELISpot with PBMCs from HIV-infected HLA-A2 subjects
Conditions: for % donors responding positively in ELISpots: Providence and Mali donors together; for IFNγ ELISpot response, donor H_0912: HLA-A A0201; for IFNγ ELISpot response, donor H_0865: HLA-A A02011; for IFNγ ELISpot response, donor 0015404: A02, A0285, A0286; for IFNγ ELISpot response, donor 0015299 / IFNγ ELISpot response, donor 0018349: A0208; for IFNγ ELISpot response, donor 0015269: A0209, A0231
[1] = cohort #1 Providence, positive donors / 16 donors
[2] = cohort #1 Providence, peptide 10 μg/ml, overnight 37°C
[3] = cohort #3 Bamako, Mali, positive donors / 8 donors
[4] = cohort #3 Bamako, Mali, peptide 10 μg/ml, overnight 37°C

Sequence	% donors responding positively in ELISpots (peptide 10 μg/ml) [%]	Total responses per epitope [1]	IFNγ ELISpot response, donor H_0912 [2]	IFNγ ELISpot response, donor H_0854 (cohort #1 Providence, HLA-A A02011, A3401, peptide 10 μg/ml, overnight 37°C) [spots per 10^6 PBMCs]	IFNγ ELISpot response, donor H_0865 [2]	Total responses per epitope [3]	IFNγ ELISpot response, donor 0015404 [4] [spots per 10^6 PBMCs]	IFNγ ELISpot response, donor 0015299 [4]	IFNγ ELISpot response, donor 0018349 [4]	IFNγ ELISpot response, donor 0015269 [4]	Subjects with a positive response (cohort #2 Providence, eight subjects) [%]	Total responses per epitope (cohort #2 Providence, positive donors / 8 donors)	IFNγ ELISpot response, donor 0517001 (cohort #2 Providence, A2, A3, B44, Cw05, Cw07, peptide 10 μg/ml, overnight 37°C) [spots per 10^6 PBMCs]	IFNγ ELISpot response, donor 0902991 (cohort #2 Providence, A2, A30, B39, peptide 10 μg/ml, overnight 37°C) [spots per 10^6 PBMCs]	IFNγ ELISpot response, stated in words (PBMCs from HIV-1-infected HLA-A2 subjects, Providence and/or Bamako as stated)	IFNγ ELISpot response, donor H_0836 (cohort #1 Providence, HLA-A A02011, A2901, peptide 10 μg/ml, overnight 37°C) [spots per 10^6 PBMCs]
GIKPVVSTQL [Peptide 1001]	20.8	2/16	903 spots per 10^6 PBMCs	75	- (ELISpot responses that fall below this cutoff point are indicated with a dash mark)	3/8	111	53 spots per 10^6 PBMCs	37 spots per 10^6 PBMCs	- (ELISpot responses that fall below this cutoff point are indicated with a dash mark)	–	–	–	–	–	–
ILKEPVHGVY [Peptide 1249]	–	–	–	–	–	–	–	–	–	–	37.5	3/8	117	2380	–	–
RTLNAWVKV [Peptide 3003]	25.0	–	–	–	–	2/8	43	- (ELISpot responses that fall below this cutoff point are indicated with a dash mark)	- (ELISpot responses that fall below this cutoff point are indicated with a dash mark)	- (ELISpot responses that fall below this cutoff point are indicated with a dash mark)	–	–	–	–	–	–
PLQLPPLERL [Peptide 2004]	50.0	–	–	–	–	4/8	59	36 spots per 10^6 PBMCs	37 spots per 10^6 PBMCs	- (ELISpot responses that fall below this cutoff point are indicated with a dash mark)	–	–	–	–	–	–
RLEPWKHPG [Peptide 1017]	6.3	1/16	29 spots per 10^6 PBMCs	–	- (ELISpot responses that fall below this cutoff point are indicated with a dash mark)	–	–	–	–	–	–	–	–	–	–	–
SAEPVPLQL [Peptide 2003]	50.0	–	–	–	–	4/8	50	25 spots per 10^6 PBMCs	25 spots per 10^6 PBMCs	- (ELISpot responses that fall below this cutoff point are indicated with a dash mark)	–	–	–	–	–	–
DIQKLVGKL [Peptide 1010]	6.3	1/16	- (ELISpot responses that fall below this cutoff point are indicated with a dash mark)	–	- (ELISpot responses that fall below this cutoff point are indicated with a dash mark)	–	–	–	–	–	–	–	–	–	elicited IFNγ ELISpot responses	64
WLWYIKIFI [Peptide 3002]	12.5	–	–	–	–	1/8	63	- (ELISpot responses that fall below this cutoff point are indicated with a dash mark)	- (ELISpot responses that fall below this cutoff point are indicated with a dash mark)	- (ELISpot responses that fall below this cutoff point are indicated with a dash mark)	–	–	–	–	–	–
